Measurements taken from PMC3110009 (ACS medicinal chemistry letters, 2011).

Legend:
[1] = target: dopamine D3 receptor (human D3 clone) (Homo sapiens, UniProt P35462); test: Competitive binding at human D3 clone, [3H]domperidone
[2] = target: dopamine D2 receptor (D2^high / D2^low) (Rattus norvegicus, UniProt P61169); assay type: binding
Sequence of dopamine D2 receptor (D2^high / D2^low) (P61169 1-415 isoform P61169-2): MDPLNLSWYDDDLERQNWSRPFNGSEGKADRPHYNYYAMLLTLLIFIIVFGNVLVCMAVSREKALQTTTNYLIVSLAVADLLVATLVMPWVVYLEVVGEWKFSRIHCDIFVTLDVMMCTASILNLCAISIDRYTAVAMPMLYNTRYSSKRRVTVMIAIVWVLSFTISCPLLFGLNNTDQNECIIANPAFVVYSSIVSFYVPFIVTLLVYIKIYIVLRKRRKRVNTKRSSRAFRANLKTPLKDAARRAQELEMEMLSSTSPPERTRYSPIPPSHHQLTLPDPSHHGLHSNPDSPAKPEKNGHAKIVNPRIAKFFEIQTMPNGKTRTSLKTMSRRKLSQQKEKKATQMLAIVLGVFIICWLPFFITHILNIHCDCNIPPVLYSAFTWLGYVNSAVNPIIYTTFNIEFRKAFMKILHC

Sequence of dopamine D3 receptor (human D3 clone) (P35462 whole entry): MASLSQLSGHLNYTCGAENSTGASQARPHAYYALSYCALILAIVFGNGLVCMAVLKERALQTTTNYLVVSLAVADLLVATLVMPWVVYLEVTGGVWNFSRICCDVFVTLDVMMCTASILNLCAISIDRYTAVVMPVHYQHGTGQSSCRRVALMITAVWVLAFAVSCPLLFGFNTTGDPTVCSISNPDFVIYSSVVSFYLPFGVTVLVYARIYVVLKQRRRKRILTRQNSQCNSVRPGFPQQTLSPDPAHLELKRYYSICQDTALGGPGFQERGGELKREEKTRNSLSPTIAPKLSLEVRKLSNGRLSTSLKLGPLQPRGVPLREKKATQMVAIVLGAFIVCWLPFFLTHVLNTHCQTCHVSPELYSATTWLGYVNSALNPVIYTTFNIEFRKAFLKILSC

CN1CCc2cc(OCCF)cc3c2[C@H]1Cc1ccc(O)c(O)c1-3 [Compound 8f]
Ki D3 [3H]domperidone ([1]; human D3 clone, SD): no appreciable affinity to D3

CCN1CCc2cc(OCCF)cc3c2[C@H]1Cc1ccc(O)c(O)c1-3 [Compound 8d]
fold improvement in D2^high binding affinity ([2]; 2-fluoroethoxy analog versus N-ethyl 2-fluoropropanoxy analog 8c): more than 2 fold

CN1CCc2cc(OCCCF)cc3c2[C@H]1Cc1ccc(O)c(O)c1-3 [Compound 8e]
Ki D3^high ([1]; high affinity state of D3): did not exhibit any D3^high affinity

CCN1CCc2cc(OCCCF)cc3c2[C@H]1Cc1ccc(O)c(O)c1-3 [Compound 8c, N-ethyl-2-fluoropropanoxy catechol-aporphine]
fold increase in D2^high affinity ([2]; in comparison to 8a): ~4 fold
